{"source": "patent US4769373A", "about": "“Anti-arrhythmic azabicyclic compounds” (Richter Gedeon Vegyeszeti Gyar Rt., priority 1983, dated 1988)", "key": {"[1]": {"test_system": "disorders of the cardiac rhythm provoked by aconitine", "assay": "animal or person", "conditions": "for ED50 (dose required to restore the rhythm in 50%): i.v., aconitine-induced arrhythmia; for ED50: Rattus norvegicus, iv, read-out: ED50 (dose required to restore the rhythm in 50%), Wistar rats, i.v., aconitine-induced arrhythmia; for LD50/ED50 index: LD50 mice i.v. / ED50 rats i.v.; for index ratio (index of the test compound : index of Lidocaine): relative to Lidocaine = 1", "description": "The anti-arrhytmic effect was tested in Wistar rats. The animals first received aconitine intravenously to provoke disorders of the cardiac rhythm [M. Fekete and J. Borsy: Med. Exp. Basel, 10, 93 (1964)] and then i.v. the test (or reference) compound. […] The dose required to restore the rhythm in 50% (ED50 mg/kg) was determined."}, "in vivo": {"assay": "in vivo", "conditions": "mouse, iv, mice, i.v., read-out: LD50 (dose causing 50% mortality)"}, "[2]": {"test_system": "ischiadic nerve isolated from frog", "assay": "local anaesthetic activity on isolated ischiadic nerve", "conditions": "relative to Lidocaine"}, "[3]": {"test_system": "heart isolated from guinea pig", "assay": "electrophysiological parameters (conduction time, refractory period) of isolated heart", "conditions": "relative to quinidine", "description": "The new compounds have no beta-receptor blocking effect. In a local anaesthetic mechanism of effect the compounds of the formula (I) influence certain electrophysiological parameters of the heart. E.g. increase in conduction time and refractory period were observed on heart isolated from guinea pig."}}, "note": "Structures can show the parent of a compound that is named as a salt.", "data": [{"smiles": "CN1CC2CCC(N(C)C)C(C1)C2Oc1ccccc1", "note": "(stereo not drawn) [compound 1544, 6β-dimethylamino-3-methyl-9α-phenoxy-3-azabicyclo-[3.3.1]nonane]", "values": [{"measurement": "ED50 (dose required to restore the rhythm in 50%)", "setting": "[1]; Wistar rats", "result": 1.4, "unit": "mg/kg"}]}, {"smiles": "CN1CC2CCC(N(C)C)C(C1)C2OC(=O)c1cccc(C(F)(F)F)c1", "note": "(stereo not drawn) [compound 1648, 6α-dimethylamino-3-methyl-9α-(3'-trifluoremethylbenzoyloxy)-3-azabicyclo[3.3.1]nonane dihydrochloride]", "values": [{"measurement": "ED50", "setting": "[1]", "result": 1, "unit": "mg/kg"}]}, {"smiles": "CN1CC2CCC(N(C)C)C(C1)C2OC(=O)C1c2ccccc2Oc2ccccc21", "note": "(stereo not drawn) [compound 1543, 6β-dimethylamino-3-methyl-9α-(xanthen-9'-carbonyloxy)-3-azabicyclo[3.3.1]nonane]", "values": [{"measurement": "ED50 (dose required to restore the rhythm in 50%)", "setting": "[1]; Wistar rats", "result": 0.6, "unit": "mg/kg"}]}, {"smiles": "CN1CC2CCC(N(C)C)C(C1)C2OC(=O)c1ccc2ccccc2c1", "note": "(stereo not drawn) [compound 1801, 6α-dimethylamino-3-methyl-9α-(2'-naphthoyloxy)-3-azabicyclo[3.3.1]nonane]", "values": [{"measurement": "ED50", "setting": "[1]", "result": 0.7, "unit": "mg/kg"}]}, {"smiles": "CN1CC2CCC(N(C)C)C(C1)C2OC(=O)c1ccc(F)cc1", "note": "(stereo not drawn) [compound 1641, 6α-dimethylamino-3-methyl-9α-(4'-fluorobenzoyloxy)-3-azabicyclo[3.3.1]nonane dihydrochloride monohydrate]", "values": [{"measurement": "ED50", "setting": "[1]", "result": 0.55, "unit": "mg/kg"}]}, {"smiles": "CN1CC2CCC(N(C)C)C(C1)C2OC(=O)c1ccccc1", "note": "(stereo not drawn) [compound 1541, 6α-dimethylamino-3-methyl-9β-benzoyloxy-3-azabicyclo[3.3.1]nonane dihydrochloride]", "values": [{"measurement": "ED50 (dose required to restore the rhythm in 50%)", "setting": "[1]; Wistar rats, dihydrochloride", "result": 3.5, "unit": "mg/kg"}]}, {"smiles": "CN1CC2CCC(N(C)C)C(C1)C2Oc1ccccc1", "note": "(stereo not drawn) [compound 1533, 6α-dimethylamino-3-methyl-9α-phenoxy-3-azabicyclo[3.3.1]nonane]", "values": [{"measurement": "ED50", "setting": "[1]", "result": 1.4, "unit": "mg/kg"}]}, {"smiles": "CN1CC2CCC(N(C)C)C(C1)C2Oc1ccc(Cl)cc1", "note": "(stereo not drawn) [compound 1534, 6α-dimethylamino-3-methyl-9α-(4'-chlorophenoxy)-3-azabicyclo[3.3.1]nonane fumarate]", "values": [{"measurement": "ED50", "setting": "[1]", "result": 1.1, "unit": "mg/kg"}]}, {"smiles": "CN1CC2CCC(N(C)C)C(C1)C2OC(=O)C1c2ccccc2Oc2ccccc21", "note": "(stereo not drawn) [compound 1547, 6α-dimethylamino-3-methyl-9β-(xanthen-9'-carbonyloxy)-3-azabicyclo[3.3.1]nonane]", "values": [{"measurement": "LD50", "setting": "in vivo", "result": 36.3, "unit": "mg/kg"}, {"measurement": "LD50/ED50 index", "setting": "[1]", "result": 51.1}, {"measurement": "ED50 (dose required to restore the rhythm in 50%)", "setting": "[1]; Wistar rats", "result": 0.71, "unit": "mg/kg"}, {"measurement": "index ratio (index of the test compound : index of Lidocaine)", "setting": "[1]", "result": 15.7}]}, {"smiles": "CN1CC2CCC(N(C)C)C(C1)C2OC(=O)c1cccc(Cl)c1", "note": "(stereo not drawn) [compound 1645, 6α-dimethylamino-3-methyl-9α-(3'-chlorobenzoyloxy)-3-azabicyclo[3.3.1]nonane dihydrochloride monohydrate]", "values": [{"measurement": "ED50", "setting": "[1]", "result": 1.2, "unit": "mg/kg"}]}, {"smiles": "CN1CC2CCC(N(C)C)C(C1)C2OC(c1ccccc1)c1ccccc1", "note": "(stereo not drawn) [compound 1540, 6α-dimethylamino-3-methyl-9α-benzhydryloxy-3-azabiocyclo[3.3.1]nonane]", "values": [{"measurement": "ED50", "setting": "[1]", "result": 0.4, "unit": "mg/kg"}]}, {"smiles": "CN1CC2CCC(N(C)C)C(C1)C2OC(=O)c1ccc(Cl)cc1", "note": "(stereo not drawn) [compound 1658, 6β-dimethylamino-3-methyl-9α-(4'-chlorobenzoyloxy)-3-azabicyclo[3.3.1]nonane dihydrochloride]", "values": [{"measurement": "ED50 (dose required to restore the rhythm in 50%)", "setting": "[1]; Wistar rats, dihydrochloride", "result": 2.3, "unit": "mg/kg"}]}, {"smiles": "CN1CC2CCC(N(C)C)C(C1)C2Oc1ccccc1Cl", "note": "(stereo not drawn) [compound 1536, 6α-dimethylamino-3-methyl-9α-(2'-chlorophenoxy)-3-azabicyclo[3.3.1]nonane dihydrochloride]", "values": [{"measurement": "ED50", "setting": "[1]", "result": 1.8, "unit": "mg/kg"}]}, {"smiles": "CN1CC2CCC(N(C)C)C(C1)C2Oc1cccc(C(F)(F)F)c1", "note": "(stereo not drawn) [compound 1539, 6α-dimethylamino-3-methyl-9α-(3'-trifluoromethylphenoxy)-3-azabicyclo[3.3.1]nonane fumarate]", "values": [{"measurement": "LD50", "setting": "in vivo", "result": 64, "unit": "mg/kg"}, {"measurement": "local anaesthetic activity compared with Lidocaine", "setting": "[2]", "result": "as active as the Lidocaine"}, {"measurement": "LD50/ED50 index", "setting": "[1]", "result": 256.0}, {"measurement": "ED50 (dose required to restore the rhythm in 50%)", "setting": "[1]; Wistar rats", "result": 0.25, "unit": "mg/kg"}, {"measurement": "index ratio (index of the test compound : index of Lidocaine)", "setting": "[1]", "result": 78.5}]}, {"smiles": "CN1CC2CCC(N(C)C)C(C1)C2OC(=O)C1c2ccccc2Oc2ccccc21", "note": "(stereo not drawn) [compound 1531, 6α-dimethylamino-3-methyl-9α-(xanthen-9-carbonyloxy)-3-azabicyclo[3.3.1]nonane dihydrochloride]", "values": [{"measurement": "ED50", "setting": "[1]", "result": 1, "unit": "mg/kg"}]}, {"smiles": "COc1cc(C(=O)OC2C3CCC(N(C)C)C2CN(C)C3)cc(OC)c1OC", "note": "(stereo not drawn) [compound 1529, 6α-dimethylamino-3-methyl-9α(3',4',5'-trimethoxybenzoyloxy)-3-azabicyclo[3.3.1]nonane]", "values": [{"measurement": "LD50", "setting": "in vivo", "result": 35.2, "unit": "mg/kg"}, {"measurement": "LD50/ED50 index", "setting": "[1]", "result": 234.0}, {"measurement": "ED50", "setting": "[1]", "result": 0.15, "unit": "mg/kg"}, {"measurement": "anti-arrhythmic effect, oral", "setting": "[1]; Wistar rats, 20 mg/kg dose p.o.", "result": "prolonged anti-arrhythmic effect"}, {"measurement": "index ratio (index of the test compound : index of Lidocaine)", "setting": "[1]", "result": 71.8}]}, {"smiles": "CN1CC2CCC(N(C)C)C(C1)C2Oc1cccc(Cl)c1", "note": "(stereo not drawn) [compound 1535, 6α-dimethylamino-3-methyl-9α-(3'-chlorophenoxy)-3-azabicyclo[3.3.1]nonane monohydrochloride]", "values": [{"measurement": "ED50", "setting": "[1]", "result": 2.5, "unit": "mg/kg"}]}, {"smiles": "CN1CC2CCC(N(C)C)C(C1)C2Oc1cccc(C(F)(F)F)c1", "note": "(stereo not drawn) [compound 1545, 6β-dimethylamino-3-methyl-9α-(3'-trifluoromethylphenoxy)-3-azabicyclo[3.3.1]nonane dihydrochloride]", "values": [{"measurement": "ED50 (dose required to restore the rhythm in 50%)", "setting": "[1]; Wistar rats, dihydrochloride", "result": 1.8, "unit": "mg/kg"}]}, {"smiles": "CN1CC2CCC(N(C)C)C(C1)C2OC(=O)c1ccc2ccccc2c1", "note": "(stereo not drawn) [compound 1840, 6β-dimethylamino-3-methyl-9α-(2'naphthoyloxy)-3-azabicyclo[3.3.1]nonane dihydrochloride]", "values": [{"measurement": "ED50 (dose required to restore the rhythm in 50%)", "setting": "[1]; Wistar rats, dihydrochloride", "result": 0.95, "unit": "mg/kg"}]}, {"smiles": "CN1CC2CCC(N(C)C)C(C1)C2OC(=O)c1ccccc1", "note": "(stereo not drawn) [compound 1528, 6α-dimethylamino-3-methyl-9α-benzoyloxy-3-azabicyclo[3.3.1]nonane dihydrochloride]", "values": [{"measurement": "ED50 (dose required to restore the rhythm in 50%)", "setting": "[1]; Wistar rats, dihydrochloride", "result": 0.68, "unit": "mg/kg"}]}, {"smiles": "CN1CC2CCC(N(C)C)C(C1)C2OC(=O)c1ccc(-c2ccccc2)cc1", "note": "(stereo not drawn) [compound 1530, 6α-dimethylamino-3-methyl-9α-(4'-phenylbenzoyloxy)-3-azabicyclo[3.3.1]nonane]", "values": [{"measurement": "ED50", "setting": "[1]", "result": 1.8, "unit": "mg/kg"}]}, {"smiles": "Cc1ccc(C(=O)OC2C3CCC(N(C)C)C2CN(C)C3)cc1", "note": "(stereo not drawn) [compound 1799, 6α-dimethylamino-3-methyl-9α-(4'-methylbenzoyloxy)-3-azabicyclo[3.3.1]nonane dihydrochloride]", "values": [{"measurement": "ED50", "setting": "[1]", "result": 1.1, "unit": "mg/kg"}]}, {"smiles": "CN1CC2CCC(N(C)C)C(C1)C2OC(=O)c1cccs1", "note": "(stereo not drawn) [compound 1797, 6α-dimethylamino-3-methyl-9α-(2'-thenoyloxy)-3-azabicyclo[3.3.1]nonane]", "values": [{"measurement": "ED50", "setting": "[1]", "result": 0.45, "unit": "mg/kg"}]}, {"smiles": "CN1CC2CCC(N(C)C)C(C1)C2OC(=O)c1ccccc1", "note": "(stereo not drawn) [compound 1542, 6β-dimethylamino-3-methyl-9α-benzoyloxy-3-azabicyclo[3.3.1]nonane]", "values": [{"measurement": "activity on electrophysiological parameters compared with quinidine", "setting": "[3]", "result": "about five times more active than the quinidine"}, {"measurement": "LD50", "setting": "in vivo", "result": 21.7, "unit": "mg/kg"}, {"measurement": "local anaesthetic activity compared with Lidocaine", "setting": "[2]", "result": "four times more favorable effective than Lidocaine"}, {"measurement": "LD50/ED50 index", "setting": "[1]", "result": 50.5}, {"measurement": "ED50 (dose required to restore the rhythm in 50%)", "setting": "[1]; Wistar rats", "result": 0.43, "unit": "mg/kg"}, {"measurement": "index ratio (index of the test compound : index of Lidocaine)", "setting": "[1]", "result": 15.5}]}, {"smiles": "CCN(CC)CC(=O)Nc1c(C)cccc1C", "note": "[Lidocaine, reference compound]", "values": [{"measurement": "ED50", "setting": "[1]", "result": 7.7, "unit": "mg/kg"}]}, {"smiles": "CN1CC2CCC(N(C)C)C(C1)C2OC(=O)c1ccccc1Cl", "note": "(stereo not drawn) [compound 1644, 6α-dimethylamino-3-methyl-9α-(2'-chlorobenzoyloxy)-3-azabicyclo[3.3.1]nonane dihydrochloride monohydrate]", "values": [{"measurement": "ED50", "setting": "[1]", "result": 1.4, "unit": "mg/kg"}]}, {"smiles": "Cc1ccc(OC2C3CCC(N(C)C)C2CN(C)C3)cc1", "note": "(stereo not drawn) [compound 1548, 6α-dimethylamino-3-methyl-9α-(4'-methylphenoxy)-3-azabicyclo[3.3.1]nonane fumarate]", "values": [{"measurement": "ED50", "setting": "[1]", "result": 2.5, "unit": "mg/kg"}]}, {"smiles": "CN1CC2CCC(N(C)C)C(C1)C2OC(=O)c1ccc(Cl)c(Cl)c1", "note": "(stereo not drawn) [compound 1643, 6α-dimethylamino-3-methyl-9α-(3',4'-dichlorobenzoyloxy)-3-azabicyclo[3.3.1]nonane dihydrochloride]", "values": [{"measurement": "ED50", "setting": "[1]", "result": 1.2, "unit": "mg/kg"}]}, {"smiles": "CN1CC2CCC(N(C)C)C(C1)C2Oc1ccc(Cl)c(Cl)c1", "note": "(stereo not drawn) [compound 1537, 6α-dimethylamino-3-methyl-9α-(3',4'-dichlorophenoxy)-3-azabicyclo[3.3.1]noname fumarate]", "values": [{"measurement": "ED50", "setting": "[1]", "result": 4, "unit": "mg/kg"}]}, {"smiles": "CN1CC2CCC(N(C)C)C(C1)C2OC(=O)c1cccc(F)c1", "note": "(stereo not drawn) [compound 1642, 6α-dimethylamino-3-methyl-9α-(3'-fluorobenzoyloxy)-3-azabicyclo[3.3.1]nonane dihydrochloride]", "values": [{"measurement": "ED50", "setting": "[1]", "result": 0.5, "unit": "mg/kg"}]}, {"smiles": "CN1CC2CCC(N(C)C)C(C1)C2OC(=O)c1ccc(Cl)cc1", "note": "(stereo not drawn) [compound 1800, 6α-dimethylamino-3-methyl-9α-(4'-chlorobenzoyloxy)-3-azabicyclo[3.3.1]nonane dihydrochloride]", "values": [{"measurement": "ED50 (dose required to restore the rhythm in 50%)", "setting": "[1]; Wistar rats, dihydrochloride", "result": 0.75, "unit": "mg/kg"}]}]}
